Measured values taken from ChEMBL document CHEMBL1201862, “PubChem BioAssay data set” (2004).
Active and inactive are the calls of the source.

How the values were obtained:
[1] = target: T1, Heat shock factor protein 1 (Mus musculus, UniProt P38532); assay: decrease of HSF1-responsive luciferase luminescence – cell-based, NIH3T3, dose retest, confirmation (AID 2382); format: functional;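 also: NIH3T3 fibroblasts with HSF1-driven luciferase reporter stressed by proteasome inhibitor MG132; luminescence from HSF1-driven luciferase expression after 8 hours of MG132 stress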
T1 sequence (P38532 whole entry): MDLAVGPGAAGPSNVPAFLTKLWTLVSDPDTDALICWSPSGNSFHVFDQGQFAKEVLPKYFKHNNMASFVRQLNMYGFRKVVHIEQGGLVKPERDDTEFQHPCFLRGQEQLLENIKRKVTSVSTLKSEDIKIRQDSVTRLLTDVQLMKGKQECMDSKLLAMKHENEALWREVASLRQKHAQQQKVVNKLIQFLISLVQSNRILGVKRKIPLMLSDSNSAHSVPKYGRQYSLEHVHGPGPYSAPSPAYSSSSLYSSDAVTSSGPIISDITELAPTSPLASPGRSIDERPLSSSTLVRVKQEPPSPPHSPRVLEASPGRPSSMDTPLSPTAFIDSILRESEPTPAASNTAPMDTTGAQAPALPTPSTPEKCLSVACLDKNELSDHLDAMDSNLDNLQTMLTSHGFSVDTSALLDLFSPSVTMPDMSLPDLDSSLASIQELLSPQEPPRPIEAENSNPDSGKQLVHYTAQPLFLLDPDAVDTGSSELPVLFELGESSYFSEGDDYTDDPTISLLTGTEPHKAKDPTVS

[2] = test system: SN12K1; assay: cells; format: functional; conditions: Homo sapiens
[3] = alpha-synuclein stem-loop luciferase translation blockers – H4 neuroglioma cells, luminescence, confirmation (AID 1988); format: functional, cell-based
[4] = luciferase reporter signal suppression in cells – H4 neuroglioma cells, luminescence, dose response (AID 1990); format: functional, cell-based
[5] = test system: Jurkat; assay: blockers of NF-kB activation in T cells – Jurkat, luciferase reporter, luminescence, B- and T-cell, dose response (AID 489004); format: functional, cell-based; conditions: Homo sapiens;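 also: NF-kB luciferase reporter Jurkat cells stimulated with PMA plus ionomycin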
[6] = Luminescence Cell-Based Dose Response HTS to Identify Inhibitors of 5'UTR Stem-Loop Driven Prion Protein mRNA Translation in H4 Neuroglioblastoma Cells. [Related pubchem assays: 1827 (Project Summary), 1813 (Primary HTS)]; format: functional
[7] = test system: P388/ADR; assay: cells; format: functional; conditions: Mus musculus
[8] = HEK-293T viability loss, compound-treated – cell-based, uHTS hits, cytotoxicity control for B/T-cell NF-kB inhibitor project, dose response (AID 489019); format: functional;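 also: IC50 reflects cytotoxicity as loss of cell viability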
[9] = test system: P388; assay: cells; format: functional; conditions: Mus musculus
[10] = target: Dual specificity protein kinase CLK1 (Homo sapiens, UniProt P49759); assay: inhibition of human CLK1 activity – biochemical, cherry-picked samples, selectivity assay for Dyrk1A inhibitor project, dose response (AID 588811)
Dual specificity protein kinase CLK1, sequence (P49759 whole entry): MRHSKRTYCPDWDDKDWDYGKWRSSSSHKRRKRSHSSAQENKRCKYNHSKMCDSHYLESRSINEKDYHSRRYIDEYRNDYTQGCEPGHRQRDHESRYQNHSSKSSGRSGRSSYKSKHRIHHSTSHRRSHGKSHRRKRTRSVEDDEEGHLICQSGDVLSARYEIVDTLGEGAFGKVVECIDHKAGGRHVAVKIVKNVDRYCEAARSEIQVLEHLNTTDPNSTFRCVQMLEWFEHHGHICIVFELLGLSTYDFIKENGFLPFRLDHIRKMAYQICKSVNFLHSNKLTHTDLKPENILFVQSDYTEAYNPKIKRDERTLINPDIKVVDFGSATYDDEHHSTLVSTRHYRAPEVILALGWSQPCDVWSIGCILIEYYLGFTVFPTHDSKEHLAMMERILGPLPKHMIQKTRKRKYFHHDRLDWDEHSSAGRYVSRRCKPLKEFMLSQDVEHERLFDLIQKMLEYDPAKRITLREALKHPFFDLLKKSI

[11] = target: Phospholipase D2 (Homo sapiens, UniProt O14939); assay: PLD2 purified enzyme concentration response. [Related pubchem assays (depositor defined):AID588854]; format: functional
Phospholipase D2, sequence (O14939 whole entry): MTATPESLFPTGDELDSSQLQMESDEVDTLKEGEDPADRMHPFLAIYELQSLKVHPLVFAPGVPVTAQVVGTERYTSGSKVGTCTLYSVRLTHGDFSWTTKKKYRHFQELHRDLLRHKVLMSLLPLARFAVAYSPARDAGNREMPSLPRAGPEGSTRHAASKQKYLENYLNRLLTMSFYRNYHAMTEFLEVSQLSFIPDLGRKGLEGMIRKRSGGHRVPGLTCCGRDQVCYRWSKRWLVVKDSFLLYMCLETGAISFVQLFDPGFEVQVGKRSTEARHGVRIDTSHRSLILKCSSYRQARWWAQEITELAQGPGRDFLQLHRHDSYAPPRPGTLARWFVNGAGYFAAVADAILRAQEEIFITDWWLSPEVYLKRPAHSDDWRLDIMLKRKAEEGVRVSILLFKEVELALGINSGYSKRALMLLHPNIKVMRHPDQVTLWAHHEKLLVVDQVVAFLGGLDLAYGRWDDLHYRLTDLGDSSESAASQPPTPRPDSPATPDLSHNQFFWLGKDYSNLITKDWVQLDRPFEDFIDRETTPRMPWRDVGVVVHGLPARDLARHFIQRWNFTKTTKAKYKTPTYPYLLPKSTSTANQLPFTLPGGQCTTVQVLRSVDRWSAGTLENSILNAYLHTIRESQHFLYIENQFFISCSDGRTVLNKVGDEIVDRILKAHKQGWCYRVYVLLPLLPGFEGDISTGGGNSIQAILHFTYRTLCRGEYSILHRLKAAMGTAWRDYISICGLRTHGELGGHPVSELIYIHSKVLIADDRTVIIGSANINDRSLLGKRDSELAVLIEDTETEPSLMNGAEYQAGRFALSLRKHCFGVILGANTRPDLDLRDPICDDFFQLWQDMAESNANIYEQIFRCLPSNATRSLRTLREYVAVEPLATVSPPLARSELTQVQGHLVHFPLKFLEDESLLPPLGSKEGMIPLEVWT

[12] = target: Phospholipase D1 (Homo sapiens, UniProt Q13393); assay: PLD1 purified enzyme concentration response. [Related pubchem assays (depositor defined):AID588854]; format: functional
Phospholipase D1, sequence (Q13393 whole entry): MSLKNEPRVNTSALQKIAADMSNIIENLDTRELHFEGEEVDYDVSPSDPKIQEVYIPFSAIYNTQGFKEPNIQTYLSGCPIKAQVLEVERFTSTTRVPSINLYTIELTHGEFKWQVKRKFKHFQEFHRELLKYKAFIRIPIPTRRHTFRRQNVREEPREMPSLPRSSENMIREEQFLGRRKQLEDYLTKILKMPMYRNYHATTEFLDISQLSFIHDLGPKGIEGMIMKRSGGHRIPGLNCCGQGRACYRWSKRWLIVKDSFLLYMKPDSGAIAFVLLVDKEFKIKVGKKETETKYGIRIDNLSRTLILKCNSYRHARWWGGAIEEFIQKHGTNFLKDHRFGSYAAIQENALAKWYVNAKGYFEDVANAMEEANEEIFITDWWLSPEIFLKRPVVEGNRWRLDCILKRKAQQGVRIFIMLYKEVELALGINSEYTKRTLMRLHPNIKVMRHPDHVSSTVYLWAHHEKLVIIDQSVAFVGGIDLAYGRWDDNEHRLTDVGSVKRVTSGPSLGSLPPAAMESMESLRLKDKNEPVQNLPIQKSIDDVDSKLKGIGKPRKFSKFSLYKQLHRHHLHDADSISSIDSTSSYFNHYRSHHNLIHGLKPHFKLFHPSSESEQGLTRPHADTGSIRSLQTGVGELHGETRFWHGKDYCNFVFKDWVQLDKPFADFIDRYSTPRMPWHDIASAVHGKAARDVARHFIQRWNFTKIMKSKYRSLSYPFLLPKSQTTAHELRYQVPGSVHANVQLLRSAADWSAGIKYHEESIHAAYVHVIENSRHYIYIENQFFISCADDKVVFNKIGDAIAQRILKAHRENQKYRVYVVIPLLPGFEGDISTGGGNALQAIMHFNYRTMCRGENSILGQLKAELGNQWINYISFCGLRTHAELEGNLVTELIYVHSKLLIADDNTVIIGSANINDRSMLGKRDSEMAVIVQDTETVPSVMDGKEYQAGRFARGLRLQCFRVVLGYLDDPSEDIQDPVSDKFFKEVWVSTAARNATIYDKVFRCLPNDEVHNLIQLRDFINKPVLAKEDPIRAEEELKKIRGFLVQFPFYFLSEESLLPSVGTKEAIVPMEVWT

[13] = test system: Jurkat; assay: SAR Analysis of small molecule inhibitors of T-cell specific antigen receptor-induced NF-kB activation in a Jurkat cell line using a luminescence assay - Set 2. [Related pubchem assays (depositor defined):AID435003, AID435012, AID465]; format: functional, cell-based; conditions: Homo sapiens
[14] = test system: HEK293; assay: HEK293T cell viability loss, resazurin readout – resazurin fluorescence, cytotoxicity control for NF-kB activator project, SAR follow-up (AID 493251); format: functional, cell-based; conditions: Homo sapiens
[15] = test system: HEK293; assay: SAR Analysis of small molecule inhibitors of T-cell specific antigen receptor-induced NF-kB activation in a HEK-293T cell line using a luminescence assay - Set 2. [Related pubchem assays (depositor defined):AID435003, AID435012, AID489026]; format: functional, cell-based; conditions: Homo sapiens

With `Nc1nc(Cl)nc2c1ncn2C1CC(O)C(CO)O1` (stereo not given) as the compound, how does the EC50 [1] read?
The EC50 was 79900 nM (active).

And the GI50 [2]?
Its GI50 is 695 nM (active).

What about the EC50 [3] of the same compound?
The EC50 was 567 nM (active).

What about the EC50 [4] of the same compound?
Its EC50 is 544 nM (active).

What about the IC50 [5] of the same compound?
The IC50 was 2360 nM (active).

And the EC50 [6]?
Its EC50 is 3610 nM (active).

And the GI50 [7]?
Its GI50 is 53.5 nM (active).

And the IC50 [8]?
The IC50 was > 80000 nM (inactive).

What about the GI50 [9] of the same compound?
Its GI50 is 42.8 nM (active).

Which AC50 [10] does the source give for `Clc1cc(Cl)cc(CNc2ncncc2-c2ccc3c(c2)OCO3)c1` here?
The AC50 was 30.5 nM (active).

With `O=C(NCCN1CCC2(CC1)C(=O)NCN2c1ccc(Br)cc1)c1cnc2ccccc2c1` as the compound, how does the IC50 [11] read?
The IC50 was 130 nM (active).

What about the IC50 [12] of the same compound?
Its IC50 is 3040 nM (active).

What does the source list for `Cc1ccc(C(NC(=O)C(C)C)c2ccc3cccnc3c2O)cc1` (stereo not given)?
IC50 [13]: 3260 nM (active); IC50 [14]: 8280 nM (active); IC50 [15]: 6330 nM (active)
